Data taken from US20230117034A1, “PYRAZOLOTRIAZINES” (Bayer Aktiengesellschaft, priority 2019, published 2023).
pIC50: −log10 of the molar value.

How the values were obtained:
CDK9/CycT1 = target: T1, CDK9/CycT1 (Homo sapiens, UniProt P50750); assay: CDK9/CycT1 high ATP kinase assay (TR-FRET, 2 mM ATP); format: biochemical; conditions: 2 mM ATP (high ATP); median; read-out: CDK9/CyclinT1, 2 mM ATP (high ATP), IC50 (median)
T1 construct: Recombinant full-length His-tagged human CDK9 and CycT1; purchased Life Technologies PV4131; host or cells: insect cells
Procedure, shortened: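 Full-length His-tagged human CDK9/CycT1 (insect cell, ~0.5 μg/mL) preincubated 15 min at 22 °C with compound in Tris pH 8.0, MgCl2, DTT buffer before reaction with biotinylated peptide substrate at high ATP (2 mM).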

[1] = system: CAL-120, human breast adenocarcinoma cells; assay: Proliferation assay CAL-120 (crystal violet, 4 days); format: cell-based; conditions: Homo sapiens, CAL-120, 96 h, CAL-120 cells, median, read-out: Prolif-CAL-120, IC50-[mol/l] (median)
Procedure, shortened: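 Following a 24 h attachment in 10% fetal calf serum medium, cells receive test substance over 0.01-10 µmol/L for 4 days. Dye retained by fixed cells is eluted and read at 595 nm; cell number change is referenced to day-0 and untreated wells.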

T1 sequence (P50750 whole entry): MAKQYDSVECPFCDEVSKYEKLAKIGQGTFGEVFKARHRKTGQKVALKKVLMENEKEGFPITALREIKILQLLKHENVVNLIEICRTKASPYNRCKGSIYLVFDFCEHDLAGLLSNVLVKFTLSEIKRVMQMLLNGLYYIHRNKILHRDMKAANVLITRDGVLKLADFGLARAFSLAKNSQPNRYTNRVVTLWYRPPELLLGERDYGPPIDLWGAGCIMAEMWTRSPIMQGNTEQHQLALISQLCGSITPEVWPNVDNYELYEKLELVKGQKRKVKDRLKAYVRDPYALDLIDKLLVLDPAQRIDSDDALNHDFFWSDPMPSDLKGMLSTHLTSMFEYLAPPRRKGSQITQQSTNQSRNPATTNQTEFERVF
T1 sequence (O60563 whole entry partner): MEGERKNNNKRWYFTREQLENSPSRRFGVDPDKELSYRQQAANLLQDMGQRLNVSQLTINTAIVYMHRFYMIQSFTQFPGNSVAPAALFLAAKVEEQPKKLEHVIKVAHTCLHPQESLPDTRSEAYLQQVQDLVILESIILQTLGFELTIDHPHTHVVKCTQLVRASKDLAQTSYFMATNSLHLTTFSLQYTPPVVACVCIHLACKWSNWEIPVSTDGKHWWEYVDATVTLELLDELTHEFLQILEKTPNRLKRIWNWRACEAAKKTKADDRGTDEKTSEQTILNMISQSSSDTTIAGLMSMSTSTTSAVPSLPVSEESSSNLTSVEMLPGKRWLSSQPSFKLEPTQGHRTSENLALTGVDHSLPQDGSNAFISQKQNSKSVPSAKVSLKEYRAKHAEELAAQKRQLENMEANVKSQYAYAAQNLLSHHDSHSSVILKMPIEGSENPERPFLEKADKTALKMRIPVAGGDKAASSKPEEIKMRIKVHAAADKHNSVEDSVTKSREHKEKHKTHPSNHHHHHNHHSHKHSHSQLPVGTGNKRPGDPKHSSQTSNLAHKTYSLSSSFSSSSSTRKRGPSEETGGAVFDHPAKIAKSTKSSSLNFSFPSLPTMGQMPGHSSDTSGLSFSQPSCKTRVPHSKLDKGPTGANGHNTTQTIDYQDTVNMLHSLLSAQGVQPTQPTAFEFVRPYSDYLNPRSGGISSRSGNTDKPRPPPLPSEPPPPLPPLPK

SMILES | pIC50 (CDK9/CycT1) | pIC50 [1]
OC[C@@H]1CCCCN1c1nc(NCc2nnc(-c3ccccc3)[nH]2)n2ncc(Br)c2n1 [Example 70, [(2S)-1-(8-bromo-4-{[(5-phenyl-4H-1,2,4-triazol-3-yl)methyl]amino}pyrazolo[1,5-a][1,3,5]triazin-2-yl)piperidin-2-yl]methanol] | 6.24 | 7.31
c1ccc(-c2nnc(CNc3nc(N4CCOCC4)nc4c(C5CC5)cnn34)[nH]2)cc1 [Example 93, 8-cyclopropyl-2-(morpholin-4-yl)-N-[(5-phenyl-4H-1,2,4-triazol-3-yl)methyl]pyrazolo[1,5-a][1,3,5]triazin-4-amine] | 5.07 | 7.00
c1ccc2[nH]c(CNc3nc(N4CCOCC4)nc4c(C5CC5)cnn34)nc2c1 [Example 92, N-[(1H-benzimidazol-2-yl)methyl]-8-cyclopropyl-2-(morpholin-4-yl)pyrazolo[1,5-a][1,3,5]triazin-4-amine] | < 4.70 | 7.92
Clc1cccc(-c2cnc(CNc3nc(N4CCOCC4)nc4c(Br)cnn34)[nH]2)c1 [Example 81, 8-bromo-N-{[5-(3-chlorophenyl)-1H-imidazol-2-yl]methyl}-2-(morpholin-4-yl)pyrazolo[1,5-a][1,3,5]triazin-4-amine] | 5.27 | 8.38
Cc1ccccc1-c1cnc(CNc2nc(N3CCOCC3)nc3c(Br)cnn23)[nH]1 [Example 85, 8-bromo-N-{[5-(2-methylphenyl)-1H-imidazol-2-yl]methyl}-2-(morpholin-4-yl)pyrazolo[1,5-a][1,3,5]triazin-4-amine] | < 4.97 | 7.58
FC(F)(F)Oc1ccccc1-c1nnc(CNc2nc(N3CCOCC3)nc3c(Br)cnn23)[nH]1 [Example 74, 8-bromo-2-(morpholin-4-yl)-N-({5-[2-(trifluoromethoxy)phenyl]-4H-1,2,4-triazol-3-yl}methyl)pyrazolo[1,5-a][1,3,5]triazin-4-amine] | < 4.70 | 6.51
CC1(C)CN(c2nc(NCc3nnc(-c4ccccc4)[nH]3)n3ncc(Br)c3n2)CCO1 [Example 68, 8-bromo-2-(2,2-dimethylmorpholin-4-yl)-N-[(5-phenyl-4H-1,2,4-triazol-3-yl)methyl]pyrazolo[1,5-a][1,3,5]triazin-4-amine] | 5.27 | 7.40
CC(C)c1cnn2c(NCc3nc4ccccc4[nH]3)nc(N3CCN(C)CC3)nc12 [Example 2, N-[(1H-benzimidazol-2-yl)methyl]-2-(4-methylpiperazin-1-yl)-8-(propan-2-yl)pyrazolo[1,5-a][1,3,5]triazin-4-amine] | < 4.70 | 7.51
COC(=O)C1CCN(c2nc(NCc3nnc(-c4ccccc4)[nH]3)n3ncc(Br)c3n2)CC1 [Example 77, methyl 1-(8-bromo-4-{[(5-phenyl-4H-1,2,4-triazol-3-yl)methyl]amino}pyrazolo[1,5-a][1,3,5]triazin-2-yl)piperidine-4-carboxylate] | 4.89 | 6.47
Brc1cnn2c(NCc3nnc(-c4ccccc4)[nH]3)nc(N3CC4(COC4)C3)nc12 [Example 65, 8-bromo-2-(2-oxa-6-azaspiro[3.3]heptan-6-yl)-N-[(5-phenyl-4H-1,2,4-triazol-3-yl)methyl]pyrazolo[1,5-a][1,3,5]triazin-4-amine] | < 5.24 | 8.00
Brc1cnn2c(NCc3ncc(-c4ccccn4)[nH]3)nc(N3CCOCC3)nc12 [Example 90, 8-bromo-2-(morpholin-4-yl)-N-{[5-(pyridin-2-yl)-1H-imidazol-2-yl]methyl}pyrazolo[1,5-a][1,3,5]triazin-4-amine] | 5.03 | 7.76
OCC1COCCN1c1nc(NCc2nc3ccccc3[nH]2)n2ncc(Br)c2n1 (stereo not shown) [Example 67, (4-{4-[(1H-benzimidazol-2-ylmethyl)amino]-8-bromopyrazolo[1,5-a][1,3,5]triazin-2-yl}morpholin-3-yl)methanol] | < 4.71 | 7.68
CC(C)c1cnn2c(NCc3nc4ccccc4[nH]3)nc(N(C)C)nc12 [Example 3, N^4-[(1H-benzimidazol-2-yl)methyl]-N^2,N^2-dimethyl-8-(propan-2-yl)pyrazolo[1,5-a][1,3,5]triazine-2,4-diamine] | < 4.70 | 
C[C@@H]1CN(c2nc(NCc3nc4ccccc4[nH]3)n3ncc(Br)c3n2)C[C@H](C)O1 [Example 73, N-[(1H-benzimidazol-2-yl)methyl]-8-bromo-2-[(2R,6S)-2,6-dimethylmorpholin-4-yl]pyrazolo[1,5-a][1,3,5]triazin-4-amine] | 5.03 | 7.64
C[C@@H]1CN(c2nc(NCc3nnc(-c4ccccc4)[nH]3)n3ncc(Br)c3n2)C[C@H](C)O1 [Example 78, 8-bromo-2-[(2R,6S)-2,6-dimethylmorpholin-4-yl]-N-[(5-phenyl-4H-1,2,4-triazol-3-yl)methyl]pyrazolo[1,5-a][1,3,5]triazin-4-amine] | 6.11 | 7.59
COC1CCN(c2nc(NCc3nnc(-c4ccccc4)[nH]3)n3ncc(Br)c3n2)CC1 [Example 76, 8-bromo-2-(4-methoxypiperidin-1-yl)-N-[(5-phenyl-4H-1,2,4-triazol-3-yl)methyl]pyrazolo[1,5-a][1,3,5]triazin-4-amine] | 5.11 | 6.96
FC(F)(F)Oc1cccc(-c2cnc(CNc3nc(N4CCOCC4)nc4c(Br)cnn34)[nH]2)c1 [Example 82, 8-bromo-2-(morpholin-4-yl)-N-({5-[3-(trifluoromethoxy)phenyl]-1H-imidazol-2-yl}methyl)pyrazolo[1,5-a][1,3,5]triazin-4-amine] | 4.90 | 7.07
OC[C@H]1CCCCN1c1nc(NCc2nnc(-c3ccccc3)[nH]2)n2ncc(Br)c2n1 [Example 71, [(2R)-1-(8-bromo-4-{[(5-phenyl-4H-1,2,4-triazol-3-yl)methyl]amino}pyrazolo[1,5-a][1,3,5]triazin-2-yl)piperidin-2-yl]methanol] | 5.75 | 7.49
Fc1cccc(-c2cnc(CNc3nc(N4CCOCC4)nc4c(Br)cnn34)[nH]2)c1 [Example 79, 8-bromo-N-{[5-(3-fluorophenyl)-1H-imidazol-2-yl]methyl}-2-(morpholin-4-yl)pyrazolo[1,5-a][1,3,5]triazin-4-amine] | 5.60 | 8.33
Fc1ccccc1-c1cnc(CNc2nc(N3CCOCC3)nc3c(Br)cnn23)[nH]1 [Example 86, 8-bromo-N-{[5-(2-fluorophenyl)-1H-imidazol-2-yl]methyl}-2-(morpholin-4-yl)pyrazolo[1,5-a][1,3,5]triazin-4-amine] | 5.28 | 7.84
COc1ccccc1-c1cnc(CNc2nc(N3CCOCC3)nc3c(Br)cnn23)[nH]1 [Example 87, 8-bromo-N-{[5-(2-methoxyphenyl)-1H-imidazol-2-yl]methyl}-2-(morpholin-4-yl)pyrazolo[1,5-a][1,3,5]triazin-4-amine] | 5.29 | 8.18
Clc1ccc(-c2cnc(CNc3nc(N4CCOCC4)nc4c(Br)cnn34)[nH]2)cc1 [Example 72, 8-bromo-N-{[5-(4-chlorophenyl)-1H-imidazol-2-yl]methyl}-2-(morpholin-4-yl)pyrazolo[1,5-a][1,3,5]triazin-4-amine] | 5.17 | 7.49
